Data as given in patent US6773702B2, “Use of combretastatin A4 and its prodrugs as an immune enhancing therapy” (OXiGENE, Inc., priority 2000, dated 2004).

Columns and labels:
[1] = system: NO production by spleen cells of tumor-free immunized rats; assay: NO production by spleen cells (Griess technique) after in vitro preincubation with CA4P; assay type: cell-based, rat; details: for Nitric oxide production into supernatant: unseparated spleen cells (L0), CA4-P 0.15 μg/ml preincubated 3 h
Method: One of the main suppressive molecules produced by macrophages is nitric oxide (NO) and direct assays of the generation of NO released into the medium of parallel spleen cell cultures (containing both adherent and nonadherent cells) after exposure to SEA and CA4P were performed as previously described (Hegardt et al, Cancer Immunol & Immunother (2001) 50: 491-501).
The proliferative response of 3×10^5 admixed non-adherent cells (e.g. T-cells) stimulated for 4 days with SEA (0.05 ng/ml) was estimated as in Example 1. […] This effect is interpreted as due to a decrease of the suppressive effect of the IL-12 and IL-18 activated macrophages on T cell responses. Direct assays of the generation of NO released into the medium of parallel […] spleen cell cultures after exposure to SEA and CA4P were performed as previously described (Hegardt et al, 2001).

[2] = Half-life and estimated in vivo concentration of CA4P
Method: (§1) The purified adherent cells (6×10^5/microtiter well) were treated in vitro for 3 hours with 0.15 ug/ml CA4P before washing. […] These variables were used to choose an in vitro concentration that is equal to the average concentration in vivo after a 3 hour period. For example, after treatment with 2 mg/kg in vivo, the concentration would be a maximum of 0.18 ug/ml 1.5 hours later, and less than 1 ng/ml after 3 hours.

[3] = system: spleen cells of tumor-free rats immunized with BN7005-H1D2-IL-12 and IL-18 cells; assay: Proliferative T cell response (thymidine incorporation) after in vitro preincubation of spleen cells with CA4P; assay type: cell-based, rat
Source text: Macrophages were isolated as plastic-adherent spleen cells from tumor-free rats vaccinated with IL-18 and IL-12 transfected tumor cells. […] This effect is interpreted as due to a decrease of the suppressive effect of IL-12 and IL-18 activated macrophages on T cell responses.
The observation of selective macrophage toxicity is further supported by the observation that CA4P treatment of unseparated spleen cells recapitulates this anti-tumor immune response. FIG. 3 illustrates the in vitro immune proliferative response of unseparated spleen cells isolated from tumor-free rats previously vaccinated with IL-18 and IL-12 transfected tumor cells. Spleen cells were stimulated with untransfected (H1D2-WT) tumor cells (FIG. 3A) or the superantigen SEA polyclonal activator (FIG. 3B) after preincubation with or without CA4P (0.15 μg/ml).
As described in Table 1, spleen cells were isolated from tumor-free BN×WF hybrid rats immunized twice (1 week between vaccinations) with BN7005-H1D2 tumor cells producing IL-18 and IL-12, respectively. Macrophages were isolated from the sample by allowing isolated spleen cells to adhere to the plastic surface of 96-well microtiter plates, at which point the non-adherent cells were removed.
as §1
The proliferative response of 3×10^5 admixed non-adherent cells (e.g. T-cells) stimulated for 4 days with SEA (0.05 ng/ml) was estimated as in Example 1. […] This effect is interpreted as due to a decrease of the suppressive effect of the IL-12 and IL-18 activated macrophages on T cell responses. […]

[4] = system: BN7005-H1D2 colon cancer cells; assay: Comparison of CA4 and CA4P on BN7005-H1D2 tumor growth, alone or with vaccination (FIG. 5); assay type: in vivo, rat
Method: FIGS. 5A AND 5B illustrate a comparison of the therapeutic effect of Combretastatin A4 and Combretastatin A4 Prodrug (2 mg/kg) on tumor growth (BN7005-H1D2) in vivo as a sole therapy or in combination with therapeutic vaccination (IL-18 tumor transfectants). Results are represented as mean tumor volume (FIG. 5A) or as median tumor volume (FIG. 5B) 31 days after tumor initiation.
A comparison was also made of relative effect of CA4 and CA4P administration in vivo with regard to tumor inhibitory effects when used as sole therapy and when combined with immunomodulatory gene therapy. […] A subset of these animals were subjected to regular vaccinations autologous IL-18 and IL-12-transfected tumor cells, respectively.
A comparison has been made of the effect of CA4 and CA4 prodrug with regard to tumor inhibitory effects when used as sole therapy and when combined with immunomodulatory gene therapy. As represented in FIG. 5, wild-type (BN7005-H1D2) colon cancer cells were inoculated intrahepatically and treatment with CA4 and CA4P began on day 7 (2 mg/kg 6 days a week), when the tumors were macroscopically visible. On day 9, 16 and 23, vaccinations occurred using BN7005-H1D2 cells transfected with ILI8 and IL-12, respectively.

[5] = cited from earlier work
[6] = system: BN7005-H1D2 colon cancer cells; assay: Tumor growth with IL-18/IFN-γ vaccination plus CA4P and/or L-NAME (FIG. 6); assay type: in vivo, rat
Method: FIG. 6 illustrates enhancement of the therapeutic effect of vaccination with IL-18/IFN-γ producing tumor transfectant […] cells by concurrent treatment with low dose combretastatin-A4 prodrug and/or L-NAME. Mean tumor volume±SEM is indicated. Significance of differences compared to the PBS control was evaluated by the Student's t test.
Four groups of 6 rats each were inoculated intrahepatically with 1×10^5 wild type colon cancer cells (BN7005-H1D2) on day 0. Drug treatment was initiated on day 7, when the tumor was macroscopically visible as a small nodule, and was repeated 5 days a week. CA4-P was administered i.p. at a dose of 5 mg/kg and L-NAME by gavage at a dose of 48 mg/rat. Vaccination was given twice i.p. on day 10.and 17 with 2×10^6 tumor cells producing IL-18 and IFN-γ, respectively. No drug treatment was given on the day of vaccination and the day after. On day 28 all animals were laparotomized and tumor diameters measured (the longest diameter (a) and the one perpendicular to the first (b) and tumor volume calculated according to the formula 0.4×a×b×b.
Referring to FIG. 6, wild-type (BN7005-H1D2) colon cancer cells were inoculated intrahepatically and combretastatin A4 prodrug treatment began daily on day 7 when the tumors were macroscopically visible. L-NAME, a well known NO inhibitor and effective antitumor agent, was also administered daily. On day 10 and 17 vaccination occurred using BN7005-H1D2 cells transfected with IL-18/IFN-gamma. […] One likely explanation was that both L-NAME and Combretastatin A4 were doing the same thing; i.e. inhibiting the production of proinflammatory cytokines that cause immune suppression.

Q: With COc1ccc(/C=C\c2cc(OC)c(OC)c(OC)c2)cc1OP(=O)([O-])[O-].[Na+].[Na+] [CA4P, CA4 phosphate disodium salt] as the compound, how does the “Nitric oxide production into supernatant” value ([1]; Rat#1, Medium) read?
A: The value was 7 µM.

Q: And the “Nitric oxide production into supernatant” value ([1]; Rat#1, SEA)?
A: Its value is 8 µM.

Q: What about the “Nitric oxide production into supernatant” value ([1]; Rat#2, Medium) of the same compound?
A: The value was 6 µM.

Q: What about the “Nitric oxide production into supernatant” value ([1]; Rat#2, SEA) of the same compound?
A: The value was 7 µM.

Q: And the “Animals with inhibitory effect on NO production” value ([1]; parallel studies (FIG. 3), spleen cells, SEA 0.1 ng/ml, CA4P 0.15 μg/ml)?
A: The value was “all 4”.

Q: What about the “Effect on NO produced” value ([1]; spleen cell cultures exposed to SEA and CA4P, 2 animals studied) of the same compound?
A: The value was “significant reduction of NO produced”.

Q: What about the “Concentration in extracellular fluid” value ([2]; 1.5 hours after treatment with 2 mg/kg in vivo, calculated from half-life and extracellular fluid 16.6% of body weight) of the same compound?
A: The value was ≤ 180 ng/mL.

Q: And the “Concentration in extracellular fluid” value ([2]; 3 hours after treatment with 2 mg/kg in vivo, calculated)?
A: The value was “less than 1 ng/ml”.

Q: And the “Proliferative T cell response (CPM thymidine incorporation)” value ([3]; Rat#1, adherent spleen cells (MO) preincubated 3 h with CA4-P 0.15 μg/ml, then L1 nonadherent cells + SEA 0.05 ng/ml, 4 days)?
A: Its value is 124K.

Q: What about the “Animals with stimulating effect on proliferative response” value ([3]; parallel studies (FIG. 3), spleen cells stimulated with wild type tumor cells and SEA 0.1 ng/ml, CA4P 0.15 μg/ml) of the same compound?
A: The value was 3 of 4.

Q: And the “Enhancement of in vitro proliferative response of admixed non-adherent cells” value ([3]; preincubation of adherent cells (spleen macrophages) with CA4P)?
A: Its value is 2 fold.

Q: And the Tumor inhibitory effect ([4]; 2 mg/kg 6 days a week as sole therapy)?
A: The Tumor inhibitory effect was “no significant effect as sole therapy”.

Q: What about the Tumor inhibitory effect ([4]; 2 mg/kg combined with vaccination (IL-18 and IL-12 transfected tumor cells)) of the same compound?
A: Its Tumor inhibitory effect is “significant tumor inhibitory effects”.

Q: And the Half-life in vivo [5]?
A: Its Half-life in vivo is “less than 15 min”.

Q: And the “Enhancement by combining L-NAME with combretastatin A4 prodrug” value ([6]; CA4-P 5 mg/kg + L-NAME 48 mg/rat + vaccination)?
A: Its value is “only a small enhancement”.

Q: What about the “Tumor growth compared to the PBS group” value ([6]; CA4P 5 mg/kg i.p. + vaccination with IL-18/IFN-γ producing tumor cells, day 28) of the same compound?
A: Its value is “inhibited the tumor growth significantly”.
